Test results published in patent US11098041B2 (Merck Patent GmbH, priority 2014, dated 2021).

Legend:
[1] = target: BTK C481S (His-TEV-hsBTK(328-659)(C481S)) (Homo sapiens (Human), UniProt Q06187, C481S); assay: Assay B: microfluidic off-chip mobility shift assay against BTK C481S enzyme; format: biochemical; settings: BTK C481S mutant
In short: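 Substrate-to-phosphopeptide conversion quantified by microfluidic mobility shift with laser-induced fluorescence; IC50 and efficacy from log[inhibitor] vs. % activity.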

full-length human BTK = full-length human BTK (Homo sapiens (Human), UniProt Q06187); assay: Assay A: microfluidic off-chip mobility shift assay against BTK enzyme; format: biochemical
Chain of full-length human BTK (Q06187 whole entry): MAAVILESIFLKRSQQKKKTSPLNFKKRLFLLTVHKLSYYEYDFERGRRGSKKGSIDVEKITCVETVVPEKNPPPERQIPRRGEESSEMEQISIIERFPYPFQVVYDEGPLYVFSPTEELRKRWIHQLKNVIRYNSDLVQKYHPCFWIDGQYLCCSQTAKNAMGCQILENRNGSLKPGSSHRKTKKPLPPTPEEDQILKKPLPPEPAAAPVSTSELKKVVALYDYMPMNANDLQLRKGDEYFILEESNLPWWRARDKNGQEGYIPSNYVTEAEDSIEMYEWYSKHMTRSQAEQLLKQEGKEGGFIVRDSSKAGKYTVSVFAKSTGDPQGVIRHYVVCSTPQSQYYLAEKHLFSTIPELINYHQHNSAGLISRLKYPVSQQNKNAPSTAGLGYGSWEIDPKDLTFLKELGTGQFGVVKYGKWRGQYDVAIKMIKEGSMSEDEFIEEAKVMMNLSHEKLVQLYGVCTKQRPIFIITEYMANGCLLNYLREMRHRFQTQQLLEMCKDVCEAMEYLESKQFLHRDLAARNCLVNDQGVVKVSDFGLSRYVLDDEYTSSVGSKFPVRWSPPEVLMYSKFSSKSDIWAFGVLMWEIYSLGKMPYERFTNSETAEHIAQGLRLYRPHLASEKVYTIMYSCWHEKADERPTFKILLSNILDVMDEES

LCK = LCK (Homo sapiens (Human), UniProt P06239); assay: Assay E: LCK biochemical assay (HotSpot Kinase Assay); settings: for inhibition at 1 µM: read-out: LCK % inhibition at 1 uM test concentration (Assay E)
Chain of LCK (P06239 whole entry): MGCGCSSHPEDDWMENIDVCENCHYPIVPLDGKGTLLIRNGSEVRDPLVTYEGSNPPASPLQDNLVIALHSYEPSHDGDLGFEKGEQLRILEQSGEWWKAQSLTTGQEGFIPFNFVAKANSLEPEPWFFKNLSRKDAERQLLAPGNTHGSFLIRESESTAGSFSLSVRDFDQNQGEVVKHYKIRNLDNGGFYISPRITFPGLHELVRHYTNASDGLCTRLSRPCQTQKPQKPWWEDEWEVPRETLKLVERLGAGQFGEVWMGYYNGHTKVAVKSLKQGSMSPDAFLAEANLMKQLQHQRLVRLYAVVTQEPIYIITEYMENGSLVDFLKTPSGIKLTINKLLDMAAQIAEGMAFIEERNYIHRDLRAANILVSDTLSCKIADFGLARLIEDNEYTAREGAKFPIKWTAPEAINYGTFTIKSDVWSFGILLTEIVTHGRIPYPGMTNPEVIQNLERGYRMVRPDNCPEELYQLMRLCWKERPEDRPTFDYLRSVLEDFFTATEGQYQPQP
Procedure: Assay E: LCK Biochemical Assay
The standard protocol below describes the standard HotSpot Kinase Assay run by the Reaction Biology Corporation as a service.
The substrate (poly(EY) (Glu:Tyr (4:1)) and the cofactors were prepared in fresh Reaction Buffer (20 mM Hepes (pH 7.5), 10 mM MgCl2, 2 mM MnCl2, 1 mM EGTA, 0.02% Brij35, 0.02 mg/ml BSA, 0.1 mM Na3VO4, 2 mM DTT, 2% DMSO). To the substrate solution was then added the enzyme (LCK; recombinant human full-length (Genbank Accession #NP_005347); C-terminal His-tagged, expressed in insect cells), and the resulting solution was then gently mixed. The test compounds were dissolved in DMSO and then delivered into the kinase reaction mixture using acoustic liquid handling technology (Echo550; nanoliter range). The reaction mixture was incubated for 20 min at RT and then treated with ^33P-ATP to initiate the reaction. After 2 hours of incubation at RT, kinase activity was detected using Reaction Biology Corporation's proprietary P81 filter-binding method.

[2] = test system: anti-IgM-induced expression of CD69 on CD19 positive cells (B cells) in human PBMCs; assay: Assay C: PBMC IC50 assay (anti-IgM-induced CD69 expression); format: cell-based; settings: anti-IgM stimulation
In short: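 Freshly isolated human PBMCs (2.5×10^5/well) pretreated 1 h with compound, then stimulated overnight (~16-18 h) with goat F(ab′)2 anti-human IgM. CD69 on CD19+ B cells measured by flow cytometry; IC50 from percentage CD69+ B cells versus concentration.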

Chain of BTK C481S (His-TEV-hsBTK(328-659)(C481S)) (Q06187 328-659 C481S): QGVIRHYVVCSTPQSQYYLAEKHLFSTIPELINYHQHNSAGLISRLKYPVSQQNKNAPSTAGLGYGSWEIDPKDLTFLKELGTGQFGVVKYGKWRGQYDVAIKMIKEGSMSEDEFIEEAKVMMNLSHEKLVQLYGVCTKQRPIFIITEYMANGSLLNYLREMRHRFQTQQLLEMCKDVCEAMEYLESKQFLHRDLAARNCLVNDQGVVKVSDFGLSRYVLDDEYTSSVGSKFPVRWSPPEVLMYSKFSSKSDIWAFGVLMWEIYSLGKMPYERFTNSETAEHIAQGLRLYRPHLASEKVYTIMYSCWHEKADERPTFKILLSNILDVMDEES

Row | SMILES | IC50 [1] [nM] | IC50 (full-length human BTK) [nM] | inhibition at 1 µM (LCK) [%] | IC50 (LCK) [µM] | IC50 [2] [nM]
1 | CC(C)(C)c1nc(C(=O)NCc2ccc(-c3ccnc4[nH]c(-c5ccc(N6CCC(F)(F)CC6)cn5)nc34)cc2F)no1 [Example 82, 5-tert-Butyl-N-[(4-[2-[5-(4,4-difluoropiperidin-1-yl)pyridin-2-yl]-3H-imidazo[4,5-b]pyridin-7-yl]-2-fluorophenyl)methyl]-1,2,4-oxadiazole-3-carboxamide] |  | < 100 | 7.3 |  | < 100
2 | CC(C)(C)c1nc(C(=O)NCc2ccc(-c3ccnc4[nH]c(-c5ccc(N6CCC(O)CC6)cn5)nc34)cc2F)no1 [Example 84, 5-tert-butyl-N-[(2-fluoro-4-[2-[5-(4-hydroxypiperidin-1-yl)pyridin-2-yl]-3H-imidazo[4,5-b]pyridin-7-yl]phenyl)methyl]-1,2,4-oxadiazole-3-carboxamide] | < 100 | < 100 |  | 585 | < 100
3 | CN(C)c1ccc(-c2nc3c(-c4ccc(CNC(=O)c5noc(C(C)(C)C)n5)c(F)c4)ccnc3[nH]2)nc1 [Example 146, 5-tert-Butyl-[1,2,4]oxadiazole-3-carboxylic acid 4-[2-(5-dimethylamino-pyridin-2-yl)-3H-imidazo[4,5-b]pyridin-7-yl]-2-fluoro-benzylamide] |  | < 100 | 11 |  | 100 to 1000
4 | CC1CN(c2ccc(-c3nc4c(-c5ccc(CNC(=O)c6noc(C(C)(C)C)n6)c(F)c5)ccnc4[nH]3)nc2)CC(C)O1 (centres unmarked) [Example 81, 5-tert-Butyl-N-[(4-[2-[5-(2,6-dimethylmorpholin-4-yl)pyridin-2-yl]-3H-imidazo[4,5-b]pyridin-7-yl]-2-fluorophenyl)methyl]-1,2,4-oxadiazole-3-carboxamide] | < 100 | < 100 | 15 |  | < 100
5 | Cn1cc(-c2nc3c(-c4ccc(CNC(=O)c5cc(C(C)(C)C)no5)c(F)c4)ccnc3[nH]2)cn1 [Example 144, 3-(tert-butyl)-N-(2-fluoro-4-(2-(1-methyl-1H-pyrazol-4-yl)-3H-imidazo[4,5-b]pyridin-7-yl)benzyl)isoxazole-5-carboxamide] |  |  | 49 |  | 

Now from value to compound, other results behind:

Row | IC50 [1] [nM] | IC50 (full-length human BTK) [nM] | inhibition at 1 µM (LCK) [%] | IC50 (LCK) [µM] | SMILES | IC50 [2] [nM]
6 | < 100 | < 100 | 29 |  | Cn1cc(-c2nc3c(-c4ccc(CN5Cc6cc(C(C)(C)C)sc6C5=O)c(F)c4)ccnc3[nH]2)cn1 [Example 92, 2-tert-Butyl-5-([2-fluoro-4-[2-(1-methyl-1H-pyrazol-4-yl)-3H-imidazo[4,5-b]pyridin-7-yl]phenyl]methyl)-4H,5H,6H-thieno[2,3-c]pyrrol-6-one] | 100 to 1000
7 | < 100 | < 100 | 17 |  | Cn1cc(-c2nc3c(-c4ccc(CNC(=O)c5ccc(C(C)(C)C)cc5)c(C(F)(F)F)c4)ccnc3[nH]2)cn1 [Example 108, 4-tert-Butyl-N-{4-[2-(1-methyl-1H-pyrazol-4-yl)-3H-imidazo[4,5-b]pyridin-7-yl]-2-trifluoromethyl-benzyl}-benzamide] | < 100
8 |  | < 100 | 40 |  | CC(C)(C)c1nnc(C(=O)NCc2ccc(-c3ccnc4[nH]c(C5=CCOCC5)nc34)cc2F)o1 [Example 138, 5-(tert-butyl)-N-(4-(2-(3,6-dihydro-2H-pyran-4-yl)-3H-imidazo[4,5-b]pyridin-7-yl)-2-fluorobenzyl)-1,3,4-oxadiazole-2-carboxamide] | 100 to 1000
